This note sets out measurements from ChEMBL document CHEMBL3044992, “Design, synthesis, and docking studies of novel ofloxacin analogues as antimicrobial agents” (2012).

≈ marks a conversion by molar mass, not a printed value.

Format in all cases: functional
The subject of test [1] is Staphylococcus epidermidis. In words: Antibacterial activity against Staphylococcus epidermidis after 24 hr by two-fold serial dilution method.
For test [2], the system named is Staphylococcus aureus. In words: Antibacterial activity against Staphylococcus aureus after 24 hr by two-fold serial dilution method.
The test system of test [3] is Bacillus subtilis. In words: Antibacterial activity against Bacillus subtilis after 24 hr by two-fold serial dilution method.
Test [4] relates to Candida albicans. The test is described as follows: Antifungal activity against Candida albicans at 100 ug/ml after 48 hr […]. The note with it: read-out: IZ.
For test [5], the system named is Candida albicans. The test is described as follows: Antifungal activity against Candida albicans at 50 ug/ml after 48 hr […]. The settings on record: read-out: IZ.
Test [6] has as its system Candida albicans. In words: Antifungal activity against Candida albicans at 25 ug/ml after 48 hr […]. The settings on record: read-out: IZ.
The subject of test [7] is Pseudomonas aeruginosa. In words: Antibacterial activity against Pseudomonas aeruginosa after 24 hr by two-fold serial dilution method.
Test [8] has as its system Klebsiella pneumoniae. In words: Antibacterial activity against Klebsiella pneumoniae after 24 hr by two-fold serial dilution method.
In test [9] the test system is Escherichia coli. The test is described as follows: Antibacterial activity against Escherichia coli after 24 hr by two-fold serial dilution method.

One may read the MIC as the smallest concentration in the dilution series that meets the test's criterion for growth inhibition.

Take `CC1COc2c(N3CCN(C)CC3)c(F)cc3c(=O)c(-c4nn(CCC(=O)Cc5cccc([N+](=O)[O-])c5)c(=S)n4N)cn1c23` (stereo not given): the MIC in test [1] stood at 0.5 µg/mL (≈ 0.803 µM); in [2] it was 0.25 µg/mL (≈ 0.401 µM); in test [3], 0.5 µg/mL (≈ 0.803 µM); in [7], 0.25 µg/mL (≈ 0.401 µM); in test [8], 0.12 µg/mL (≈ 0.193 µM); in test [9] it was 1 µg/mL (≈ 1.61 µM). In [4], the zone of inhibition at 100 µg/mL came out at 21 mm. In addition, the zone of inhibition at 50 µg/mL in test [5] came to 18 mm. Further, the zone of inhibition at 25 µg/mL in [6] turned out to be 16 mm.
`CC1COc2c(N3CCN(C)CC3)c(F)cc3c(=O)c(C(=O)N/N=C/c4ccccc4Cl)cn1c23` (stereo not given): the MIC in test [1] is 0.5 µg/mL (≈ 1 µM); in test [2] it was 0.125 µg/mL (≈ 0.251 µM); in test [3], 0.5 µg/mL (≈ 1 µM); in [7], 0.25 µg/mL (≈ 0.502 µM); in test [8], 0.12 µg/mL (≈ 0.241 µM); in [9], 0.5 µg/mL (≈ 1 µM). The zone of inhibition at 100 µg/mL in [4] came out at 22 mm. Further, the zone of inhibition at 50 µg/mL in test [5] stood at 18 mm. Besides, in [6], the zone of inhibition at 25 µg/mL turned out to be 16 mm.
On to `COc1ccc(/C=N/NC(=O)c2cn3c4c(c(N5CCN(C)CC5)c(F)cc4c2=O)OCC3C)cc1` (stereo not given), for which the MIC was found to be 0.25 µg/mL (≈ 0.507 µM) in test [1]; 0.125 µg/mL (≈ 0.253 µM) in test [2]; 0.5 µg/mL (≈ 1.01 µM) in [3]; 0.5 µg/mL (≈ 1.01 µM) in [7]; 0.5 µg/mL (≈ 1.01 µM) in test [8]; 0.5 µg/mL (≈ 1.01 µM) in test [9]. The zone of inhibition at 100 µg/mL in [4] was 23 mm. Also, in [5], the zone of inhibition at 50 µg/mL came to 20 mm. Also, the zone of inhibition at 25 µg/mL in test [6] stood at 18 mm.
For the molecule `CC1COc2c(N3CCN(C)CC3)c(F)cc3c(=O)c(C(=O)N/N=C/c4ccccc4O)cn1c23` (stereo not given), the MIC in [1] was determined as 0.25 µg/mL (≈ 0.521 µM); in test [2] it was 0.25 µg/mL (≈ 0.521 µM); in test [3] it was 0.5 µg/mL (≈ 1.04 µM); in test [7], 0.12 µg/mL (≈ 0.25 µM); in [8], 1 µg/mL (≈ 2.09 µM); in [9] it was 1 µg/mL (≈ 2.09 µM). For the same molecule, the zone of inhibition at 100 µg/mL in [4] is 21 mm. For the same molecule, in [5], the zone of inhibition at 50 µg/mL was 18 mm. For the same molecule, the zone of inhibition at 25 µg/mL in test [6] was found to be 15 mm.
For `CC1COc2c(N3CCN(C)CC3)c(F)cc3c(=O)c(C(=O)NNC=O)cn1c23` (stereo not given), the minimum inhibitory concentration (MIC) in [1] amounted to 0.25 µg/mL (≈ 0.62 µM); in test [2] it was 0.25 µg/mL (≈ 0.62 µM); in [3], 0.5 µg/mL (≈ 1.24 µM); in [7], 1 µg/mL (≈ 2.48 µM); in test [8], 1 µg/mL (≈ 2.48 µM); in [9] it was 1 µg/mL (≈ 2.48 µM). Also, in test [4], the zone of inhibition at 100 µg/mL was determined as 23 mm. The zone of inhibition at 50 µg/mL in test [5] was found to be 21 mm. Moreover, the zone of inhibition at 25 µg/mL in test [6] stood at 18 mm.
As to `CC1COc2c(N3CCN(C)CC3)c(F)cc3c(=O)c(C(=O)N/N=C/c4cccc([N+](=O)[O-])c4)cn1c23` (stereo not given), the MIC was 0.25 µg/mL (≈ 0.492 µM) in test [1]; 0.25 µg/mL (≈ 0.492 µM) in test [2]; 0.5 µg/mL (≈ 0.983 µM) in test [3]; 0.5 µg/mL (≈ 0.983 µM) in test [7]; 0.5 µg/mL (≈ 0.983 µM) in test [8]; 0.5 µg/mL (≈ 0.983 µM) in test [9]. Further, in test [4], the zone of inhibition at 100 µg/mL was 20 mm. In addition, in test [5], the zone of inhibition at 50 µg/mL was 17 mm. Also, in test [6], the zone of inhibition at 25 µg/mL is 15 mm.
For `CC1COc2c(N3CCN(C)CC3)c(F)cc3c(=O)c(C(=O)N/N=C/c4ccccc4)cn1c23` (stereo not given), the MIC in test [1] amounted to 0.25 µg/mL (≈ 0.539 µM); in test [2], 0.125 µg/mL (≈ 0.27 µM); in test [3] it was 0.5 µg/mL (≈ 1.08 µM); in test [7], 1 µg/mL (≈ 2.16 µM); in test [8] it was 0.25 µg/mL (≈ 0.539 µM); in [9], 1 µg/mL (≈ 2.16 µM). Further, the zone of inhibition at 100 µg/mL in [4] amounted to 21 mm. Also, the zone of inhibition at 50 µg/mL in [5] stood at 18 mm. Also, the zone of inhibition at 25 µg/mL in [6] is 15 mm.
With `CC1COc2c(N3CCN(C)CC3)c(F)cc3c(=O)c(-c4nn(CCC(=O)c5ccccc5)c(=S)o4)cn1c23` (stereo not given), the MIC amounted to 0.5 µg/mL (≈ 0.91 µM) in test [1]; 0.25 µg/mL (≈ 0.455 µM) in [2]; 0.5 µg/mL (≈ 0.91 µM) in test [3]; 2 µg/mL (≈ 3.64 µM) in [7]; 0.25 µg/mL (≈ 0.455 µM) in test [8]; 1 µg/mL (≈ 1.82 µM) in test [9]. Also, in test [4], the zone of inhibition at 100 µg/mL was 22 mm. For the same molecule, the zone of inhibition at 50 µg/mL in test [5] was 19 mm. In test [6], the zone of inhibition at 25 µg/mL turned out to be 16 mm.
Consider `CC1COc2c(N3CCN(C)CC3)c(F)cc3c(=O)c(-c4nn(CCC(=O)c5ccc(N)cc5)c(=S)o4)cn1c23` (stereo not given), for which the minimal inhibitory concentration (MIC) is 0.5 µg/mL (≈ 0.886 µM) in test [1]; 0.25 µg/mL (≈ 0.443 µM) in test [2]; 0.5 µg/mL (≈ 0.886 µM) in test [3]; 0.5 µg/mL (≈ 0.886 µM) in test [7]; 0.5 µg/mL (≈ 0.886 µM) in test [8]; 0.25 µg/mL (≈ 0.443 µM) in test [9]. The zone of inhibition at 100 µg/mL in test [4] amounted to 21 mm. In addition, in [5], the zone of inhibition at 50 µg/mL turned out to be 18 mm. In addition, in test [6], the zone of inhibition at 25 µg/mL was 17 mm.
Turning to `CC(=O)CCn1nc(-c2cn3c4c(c(N5CCN(C)CC5)c(F)cc4c2=O)OCC3C)oc1=S` (stereo not given), the minimal inhibitory concentration (MIC) in test [1] amounted to 0.25 µg/mL (≈ 0.513 µM); in test [2] it was 0.25 µg/mL (≈ 0.513 µM); in [3] it was 0.5 µg/mL (≈ 1.03 µM); in test [7], 0.25 µg/mL (≈ 0.513 µM); in test [8], 0.12 µg/mL (≈ 0.246 µM); in [9], 0.25 µg/mL (≈ 0.513 µM). Also, the zone of inhibition at 100 µg/mL in test [4] worked out at 22 mm. Besides, the zone of inhibition at 50 µg/mL in [5] amounted to 18 mm. Also, the zone of inhibition at 25 µg/mL in [6] worked out at 15 mm.
Turning to `CC(=O)CCn1nc(-c2cn3c4c(c(N5CCN(C)CC5)c(F)cc4c2=O)OCC3C)n(N)c1=S` (stereo not given), the MIC in [1] amounted to 0.5 µg/mL (≈ 0.997 µM); in test [2], 3.12 µg/mL (≈ 6.23 µM); in test [3] it was 0.5 µg/mL (≈ 0.997 µM); in [7] it was 0.5 µg/mL (≈ 0.997 µM); in test [8], 0.12 µg/mL (≈ 0.239 µM); in test [9], 0.5 µg/mL (≈ 0.997 µM). Moreover, the zone of inhibition at 100 µg/mL in test [4] is 22 mm. Moreover, in [5], the zone of inhibition at 50 µg/mL came to 18 mm. Besides, the zone of inhibition at 25 µg/mL in test [6] stood at 16 mm.
For `CC1COc2c(N3CCN(C)CC3)c(F)cc3c(=O)c(-c4nn(CCC(=O)c5ccccc5O)c(=S)n4N)cn1c23` (stereo not given), the MIC is 0.5 µg/mL (≈ 0.863 µM) in test [1]; 0.25 µg/mL (≈ 0.431 µM) in test [2]; 0.5 µg/mL (≈ 0.863 µM) in test [3]; 0.5 µg/mL (≈ 0.863 µM) in test [7]; 0.12 µg/mL (≈ 0.207 µM) in test [8]; 1 µg/mL (≈ 1.73 µM) in test [9]. Moreover, the zone of inhibition at 100 µg/mL in [4] was determined as 21 mm. Further, the zone of inhibition at 50 µg/mL in test [5] came out at 17 mm. Moreover, the zone of inhibition at 25 µg/mL in [6] was found to be 15 mm.
With `CC1COc2c(N3CCN(C)CC3)c(F)cc3c(=O)c(C(=O)O)cn1c23` (stereo not given) [OFLOXACIN], the MIC worked out at 0.5 µg/mL (≈ 1.38 µM) in [1], 0.25 µg/mL (≈ 0.692 µM) in [2], 1 µg/mL (≈ 2.77 µM) in test [3] and 0.06 µg/mL (≈ 0.166 µM) in test [8]. In addition, the zone of inhibition at 100 µg/mL in test [4] stood at 28 mm. Also, the zone of inhibition at 50 µg/mL in test [5] came to 26 mm. Besides, the zone of inhibition at 25 µg/mL in [6] was 21 mm.
